# Laboratory results as given in US20140308733A1, “METHOD FOR INDUCING GERMINATION OF SPORE FORMING BACTERIUM” (CALPIS CO., LTD., priority 2011, published 2014).
# Key:
# Assay type in all cases: cell-based
# [1] = tested on: Bacillus subtilis C-3102 (FERM BP-1096); test: Influence of the concentration of germination inducer on turbidity change (Example 2); details: for turbidity (630 nm): 37° C., 150 rpm
# Procedure: Next, 500 μL aliquots of bacterial suspension of Bacillus subtilis C-3102 (FERM BP-1096) used in Example 1 were mixed with 500 μL of ferulic acid, or vanillic acid solutions described above, and the mixtures were adjusted to ferulic acid (10 to 600 ppm), or vanillic acid (10 to 1800 ppm) concentrations set forth in Table 2. The concentrations of ferulic acid at the reaction initiation were 10, 100, 300, and 600 ppm, and the concentrations of vanillic acid at the reaction initiation were 10, 100, 300, 600, 1200, and 1800 ppm.
# As same as Example 1, defining the time point of mixing the bacterial suspension with the solution of ferulic acid, or vanillic acid as the reaction initiation (0 min), and continuing shaking (150 rpm) at 37° C., the absorbance (630 nm) was measured at 10, 20, 30, 40, 50, 60, 90, 120, and 180 min after the reaction initiation.
# [2] = tested on: Bacillus licheniformis (NBRC 12200); test: Germination induction, change of turbidity (630 nm) of spore suspension; details: 300 ppm; for turbidity (630 nm): 37° C., 150 rpm
# Procedure: (§1) It is possible to determine whether spores have germinated, after measuring an OD 630 value (turbidity at 630 nm) of the liquid culture, based on decrease in the value (Literature: Microbiology, (1950), 4, 3, 330-338). Briefly, bacterial cells after culturing are washed with distilled water and diluted with distilled water to OD 630=1.0, which is then mixed with an equal volume of a germination induction solution, and the turbidity at 630 nm is measured by a UV spectrophotometer at room temperature.
# (§2) TS culture media (Difco, Trypticase Soy Broth) were inoculated respectively with 11 strains listed in Table 1 and cultured at 50° C. with respect to Geobacillus stearothermophilus NBRC13737 and Aeribacillus pallidus TK6004 (FERM BP-08597), and at 37° C. with respect to the other 9 strains, until respective colonies were established. Then with respect to each of 11 strains, a loop full of a single colony was scratched by a platinum loop and suspended in 500 μL of sterilized water. In 1000 g of water was dissolved 8.0 g of a nutrient agar culture medium (Difco, Nutrient Broth), followed by high pressure steam sterilization (121° C., 15 min) to prepare a plate medium. The nutrient agar culture medium was smeared with each 100 μL of the suspension and cultured at 37° C. for 3 days.
# (§3) Then, bacterial cells were suspended using a platinum loop in 500 μL of sterilized water, and the bacterial suspension was subjected to a heat shock at 65° C. for 35 min. Each 100 μL of the heat-shocked bacterial suspension and a not-heat-shocked bacterial suspension were smeared on the TS culture media respectively and cultured at 50° C. or 37° C. for 1 day.
# (§4) After confirming the spore formation, the bacterial cells were collected by a bacteria spreader, suspended in 10 mL of sterilized distilled water, and then centrifuged (8340×g, 4° C., 15 min). The supernatant was removed and thereafter the bacterial cells were washed twice with 10 mL of sterilized water. After washing, the bacterial cells were suspended in 5 mL of sterilized water, and the suspension was filtrated by sterilized Kimwipes. The filtrate was centrifuged (8340×g, 4° C., 15 min) to remove the supernatant, and the rest was adjusted to the turbidity (at 630 nm) of 1.0 with sterilized water.
# (§5) After dissolving with stirring using a stirring rod with a propeller, filtration sterilization (0.45 μm filter) was conducted to prepare each 600 ppm-solution.
# (§6) Five hundred (500) μL of each solution and 500 μL of each bacterial spore suspension were mixed. […] Defining the time point of mixing as the reaction initiation (0 min), and continuing shaking (150 rpm) at 37° C., the turbidity (630 nm) was measured at 10, 20, 30, 40, 50, 60, 90, 120, and 180 min after the reaction initiation.
# (§7) Since the turbidity at 630 nm decreases by germination of spores, it has been known that the turbidity at 630 nm can be used to determine the germination rate.
# [3] = tested on: Bacillus licheniformis (NBRC 14206); test: as above; details: 300 ppm; for turbidity (630 nm): 37° C., 150 rpm
# Procedure: as §1, §2, §3, §4, §5, §6, §7
# [4] = 0 min after reaction initiation
# [5] = 10 min after reaction initiation
# [6] = 20 min after reaction initiation
# [7] = 30 min after reaction initiation
# [8] = 40 min after reaction initiation
# [9] = 50 min after reaction initiation
# [10] = 60 min after reaction initiation
# [11] = 90 min after reaction initiation
# [12] = 120 min after reaction initiation
# [13] = 180 min after reaction initiation
structure (smiles),measurement,setting,value
"COc1cc(C(=O)O)ccc1O [Vanillic acid, vanillic acid]",turbidity (630 nm),"[1]; vanillic acid 10 ppm, 0 min after reaction initiation",0.590
same,turbidity (630 nm),"[1]; vanillic acid 10 ppm, 10 min after reaction initiation",0.558
same,turbidity (630 nm),"[1]; vanillic acid 10 ppm, 20 min after reaction initiation",0.548
same,turbidity (630 nm),"[1]; vanillic acid 10 ppm, 30 min after reaction initiation",0.539
same,turbidity (630 nm),"[1]; vanillic acid 10 ppm, 40 min after reaction initiation",0.527
same,turbidity (630 nm),"[1]; vanillic acid 10 ppm, 50 min after reaction initiation",0.514
same,turbidity (630 nm),"[1]; vanillic acid 10 ppm, 60 min after reaction initiation",0.497
same,turbidity (630 nm),"[1]; vanillic acid 10 ppm, 90 min after reaction initiation",0.472
same,turbidity (630 nm),"[1]; vanillic acid 10 ppm, 120 min after reaction initiation",0.437
same,turbidity (630 nm),"[1]; vanillic acid 10 ppm, 180 min after reaction initiation",0.338
same,turbidity (630 nm),"[1]; vanillic acid 100 ppm, 0 min after reaction initiation",0.584
same,turbidity (630 nm),"[1]; vanillic acid 100 ppm, 10 min after reaction initiation",0.557
same,turbidity (630 nm),"[1]; vanillic acid 100 ppm, 20 min after reaction initiation",0.553
same,turbidity (630 nm),"[1]; vanillic acid 100 ppm, 30 min after reaction initiation",0.537
same,turbidity (630 nm),"[1]; vanillic acid 100 ppm, 40 min after reaction initiation",0.526
same,turbidity (630 nm),"[1]; vanillic acid 100 ppm, 50 min after reaction initiation",0.501
same,turbidity (630 nm),"[1]; vanillic acid 100 ppm, 60 min after reaction initiation",0.491
same,turbidity (630 nm),"[1]; vanillic acid 100 ppm, 90 min after reaction initiation",0.470
same,turbidity (630 nm),"[1]; vanillic acid 100 ppm, 120 min after reaction initiation",0.433
same,turbidity (630 nm),"[1]; vanillic acid 100 ppm, 180 min after reaction initiation",0.315
same,turbidity (630 nm),"[1]; vanillic acid 300 ppm, 0 min after reaction initiation",0.572
same,turbidity (630 nm),"[1]; vanillic acid 300 ppm, 10 min after reaction initiation",0.555
same,turbidity (630 nm),"[1]; vanillic acid 300 ppm, 20 min after reaction initiation",0.543
same,turbidity (630 nm),"[1]; vanillic acid 300 ppm, 30 min after reaction initiation",0.538
same,turbidity (630 nm),"[1]; vanillic acid 300 ppm, 40 min after reaction initiation",0.526
same,turbidity (630 nm),"[1]; vanillic acid 300 ppm, 50 min after reaction initiation",0.507
same,turbidity (630 nm),"[1]; vanillic acid 300 ppm, 60 min after reaction initiation",0.501
same,turbidity (630 nm),"[1]; vanillic acid 300 ppm, 90 min after reaction initiation",0.452
same,turbidity (630 nm),"[1]; vanillic acid 300 ppm, 120 min after reaction initiation",0.381
same,turbidity (630 nm),"[1]; vanillic acid 300 ppm, 180 min after reaction initiation",0.235
same,turbidity (630 nm),"[1]; vanillic acid 600 ppm, 0 min after reaction initiation",0.566
same,turbidity (630 nm),"[1]; vanillic acid 600 ppm, 10 min after reaction initiation",0.568
same,turbidity (630 nm),"[1]; vanillic acid 600 ppm, 20 min after reaction initiation",0.561
same,turbidity (630 nm),"[1]; vanillic acid 600 ppm, 30 min after reaction initiation",0.540
same,turbidity (630 nm),"[1]; vanillic acid 600 ppm, 40 min after reaction initiation",0.512
same,turbidity (630 nm),"[1]; vanillic acid 600 ppm, 50 min after reaction initiation",0.499
same,turbidity (630 nm),"[1]; vanillic acid 600 ppm, 60 min after reaction initiation",0.488
same,turbidity (630 nm),"[1]; vanillic acid 600 ppm, 90 min after reaction initiation",0.447
same,turbidity (630 nm),"[1]; vanillic acid 600 ppm, 120 min after reaction initiation",0.390
same,turbidity (630 nm),"[1]; vanillic acid 600 ppm, 180 min after reaction initiation",0.262
same,turbidity (630 nm),"[1]; vanillic acid 1200 ppm, 0 min after reaction initiation",0.567
same,turbidity (630 nm),"[1]; vanillic acid 1200 ppm, 10 min after reaction initiation",0.559
same,turbidity (630 nm),"[1]; vanillic acid 1200 ppm, 20 min after reaction initiation",0.551
same,turbidity (630 nm),"[1]; vanillic acid 1200 ppm, 30 min after reaction initiation",0.548
same,turbidity (630 nm),"[1]; vanillic acid 1200 ppm, 40 min after reaction initiation",0.520
same,turbidity (630 nm),"[1]; vanillic acid 1200 ppm, 50 min after reaction initiation",0.509
same,turbidity (630 nm),"[1]; vanillic acid 1200 ppm, 60 min after reaction initiation",0.496
same,turbidity (630 nm),"[1]; vanillic acid 1200 ppm, 90 min after reaction initiation",0.474
same,turbidity (630 nm),"[1]; vanillic acid 1200 ppm, 120 min after reaction initiation",0.456
same,turbidity (630 nm),"[1]; vanillic acid 1200 ppm, 180 min after reaction initiation",0.419
same,turbidity (630 nm),"[1]; vanillic acid 1800 ppm, 0 min after reaction initiation",0.579
same,turbidity (630 nm),"[1]; vanillic acid 1800 ppm, 10 min after reaction initiation",0.562
same,turbidity (630 nm),"[1]; vanillic acid 1800 ppm, 20 min after reaction initiation",0.549
same,turbidity (630 nm),"[1]; vanillic acid 1800 ppm, 30 min after reaction initiation",0.538
same,turbidity (630 nm),"[1]; vanillic acid 1800 ppm, 40 min after reaction initiation",0.519
same,turbidity (630 nm),"[1]; vanillic acid 1800 ppm, 50 min after reaction initiation",0.510
same,turbidity (630 nm),"[1]; vanillic acid 1800 ppm, 60 min after reaction initiation",0.498
same,turbidity (630 nm),"[1]; vanillic acid 1800 ppm, 90 min after reaction initiation",0.472
same,turbidity (630 nm),"[1]; vanillic acid 1800 ppm, 120 min after reaction initiation",0.453
same,turbidity (630 nm),"[1]; vanillic acid 1800 ppm, 180 min after reaction initiation",0.420
same,germination induction versus concentration,[1]; vanillic acid of 10 to 1800 ppm,germination was inducted at any concentration to the same extent
same,turbidity (630 nm),[2]; [4],0.602
same,turbidity (630 nm),[2]; [5],0.574
same,turbidity (630 nm),[2]; [6],0.567
same,turbidity (630 nm),[2]; [7],0.542
same,turbidity (630 nm),[2]; [8],0.523
same,turbidity (630 nm),[2]; [9],0.488
same,turbidity (630 nm),[2]; [10],0.464
same,turbidity (630 nm),[2]; [11],0.414
same,turbidity (630 nm),[2]; [12],0.362
same,turbidity (630 nm),[2]; [13],0.267
same,germination confirmed by turbidity decrease,[2]; up to 180 min,the turbidity decreased
same,turbidity (630 nm),[3]; [4],0.583
same,turbidity (630 nm),[3]; [5],0.573
same,turbidity (630 nm),[3]; [6],0.563
same,turbidity (630 nm),[3]; [7],0.553
same,turbidity (630 nm),[3]; [8],0.537
same,turbidity (630 nm),[3]; [9],0.526
same,turbidity (630 nm),[3]; [10],0.503
same,turbidity (630 nm),[3]; [11],0.470
same,turbidity (630 nm),[3]; [12],0.453
same,turbidity (630 nm),[3]; [13],0.414
same,germination confirmed by turbidity decrease,[3]; up to 180 min,the turbidity decreased
